In data set [1] the target is T1, opiate receptor (Rattus norvegicus, UniProt P33535).
T1 construct: from tissue
Nature of the data set: biochemical. Format: binding.

The conditions of data set [2]: in vivo.
For data set [3] the following is noted: as disclosed in U.S. Pat. No. 4,218,454; cited from earlier work.
Data set [4] is described as follows: mouse jump test (physical dependence). To be noted: after 100 mg/kg naloxone on day 4; 30 min. Format: in vivo. As to the method:
(§1) Analgesic activity was measured using the tail-flick assay of D'Amour, F. D., et al, J. Pharmacol. Exper. (1941) 72: 74, or by the writhing assay described by Blumberg, H., et al, Proc. Soc. Exp. Biol. Med. (1965) 118: 763. The antagonist activity, considered a measure of nonaddictiveness, was measured by the opiate receptor assay of Pert, C., et al, Mol. Pharmacol. (1974) 10: 868. Antagonist activity was also measured using the induced Straub tail method as described by De Graw, J., et al, J. Med Chem (1978) 21: 415; and Blumberg, H., et al, Advances in Chemical Psychopharmacology, Vol. 8, M. Braudy, et al, ed. Raven Press, New York, N.Y. (1973), 33-43. A direct and simple assay measuring physical dependence is the mouse jump test described by Saelens, J., et al, Arch Int Pharmacodyn (1971) 190: 213.
Physical dependence, a much more direct measure of non-addictive properties than antagonist activity, was evaluated using the mouse jump test. Mice are injected intraperitoneally 5 times on day 1 with increasing doses of test compound ranging from 8-100 mg/kg body weight. On days 2 and 3 the mice are given 100 mg/kg 4 times. On day 4 all mice receive 100 mg/kg of the antagonist naloxone in a single dose. The mice are then caged for 30 min, and a record is made of the number jumping during this time.

The nature of data set [5]: induced Straub tail method (antagonist activity). To be noted: for ED50: read-out: Antagonism ED50, Straub Tail.
A short description of data set [6]: writhing assay (analgesia). Format: in vivo. To be noted: compared with morphine. As to the method:
as §1
In general terms: Writhing tests count abdominal constrictions after an irritant is injected.

Where [7] appears, read: -NaCl, read-out: Opiate Receptor Inhibition 1C50.
[8] abbreviates: +NaCl, read-out: Opiate Receptor Inhibition 1C50.

Structures are written as SMILES. Several values for one entry are separate records, joined by “and”; a condition that tells them apart may be missing. Equal values may be shown once. Read-outs that look alike come from different tables or passages of the source.

T1 sequence (P33535 whole entry): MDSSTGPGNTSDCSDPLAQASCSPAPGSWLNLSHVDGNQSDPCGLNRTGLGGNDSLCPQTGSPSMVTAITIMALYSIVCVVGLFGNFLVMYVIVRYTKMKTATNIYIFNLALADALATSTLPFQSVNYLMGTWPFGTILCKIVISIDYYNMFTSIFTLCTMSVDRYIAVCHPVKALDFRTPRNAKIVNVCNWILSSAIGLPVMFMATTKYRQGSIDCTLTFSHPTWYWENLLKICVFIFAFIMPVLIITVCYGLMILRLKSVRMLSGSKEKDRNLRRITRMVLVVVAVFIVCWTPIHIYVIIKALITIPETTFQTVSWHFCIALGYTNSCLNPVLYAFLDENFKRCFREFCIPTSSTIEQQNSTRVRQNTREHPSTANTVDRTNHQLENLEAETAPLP

Regarding `CC(C1CC1)N1CC[C@]23c4c5ccc(O)c4O[C@H]2[C@@H](O)C=C[C@H]3[C@H]1C5` (single isomer, unassigned; diastereomer a) [N-methylcyclopropylmethyl normorphine (diastereomer A)], in data set [1] (setting [7]), the IC50 stood at 0.23 nM.

Take `CC(C1CC1)N1CC[C@]23c4c5ccc(O)c4O[C@H]2[C@@H](O)C=C[C@H]3[C@H]1C5` (single isomer, unassigned; diastereomer b) [N--α-methylcyclopropyl-methyl normorphine (B)] [N-methylcyclopropylmethyl normorphine (diastereomer B)]: the “potency relative to morphine in the tail flick assay (in words)” value in data set [2] (sc) is reported as “only one-fifth as potent as morphine”.

Regarding `CC(C1CC1)N1CC[C@]23c4c5ccc(O)c4O[C@H]2[C@@H](O)C=C[C@H]3[C@H]1C5` (single isomer, unassigned; diastereomer a) [N--α-methylcyclopropyl-methyl normorphine (A)] [N-methylcyclopropylmethyl normorphine (diastereomer A)], the “Antagonism ED50, Tail Flick” value (in vivo) is more than 213 µmol/kg. In data set [1], the “times the affinity of N-sec-butylnormorphine in the opiate assay” value is given as “about 122 times” and the “times the affinity of morphine in the opiate assay” value was “over 43 times”. Further, the “times more tightly bound than the higher melting form” value in data set [1] (competitive binding against 3H-dihydromorphine, A versus B) amounted to 30 times. For the same compound, in data set [2], the “activity relative to the diastereomeric mixture and to diastereomer B” value was “much higher activity”; the “oral activity compared with subcutaneous morphine in the tail flick assay” value is recorded as “approximated an equivalent dose of morphine administered subcutaneously”. Further, in data set [2] (po), the duration of effectiveness turned out to be 4 h; the onset of action is 5 to 10 min; the “times as potent as morphine in tail flick analgesia, oral” value turned out to be 6.2 times. In data set [2] (sc), the “activity of lower melting diastereomer A relative to higher melting form” value is reported as “about 25 times” and the “times as potent as morphine in the tail flick assay” value is recorded as 5.2 times.

As to `C=CCN1CC[C@]23c4c5ccc(O)c4O[C@H]2[C@@H](O)C=C[C@H]3[C@H]1C5` [nalorphine, reference compound], the “Antagonism ED50, Tail Flick” value (in vivo) was determined as 2.04 µmol/kg. Moreover, in data set [1] (Opiate Receptor Inhibition 1C50), the IC50 was 2 nM and 6 nM. For the same compound, in data set [3], the addiction liability result is reported as “little or no addiction liability”.

Consider `CN1CC[C@]23c4c5ccc(O)c4O[C@H]2[C@@H](O)C=C[C@H]3[C@H]1C5` [morphine], for which the “number of mice jumping” value in data set [4] is reported as 10/10. In addition, the “Antagonism ED50, Straub Tail” value in data set [5] (Straub tail method) came out at 1 µmol/kg. Moreover, the “Antagonism ED50, Tail Flick” value (reversal of analgesia induced by morphine in the tail flick assay) is 2 µmol/kg. In addition, in data set [2], the “time after which activity declines substantially” value was 3 h.

A word on the ED50: it is the midpoint of the dose-response relation. With `CC(C1CC1)N1CC[C@]23c4c5ccc(O)c4O[C@H]2[C@@H](O)C=C[C@H]3[C@H]1C5` (mixture of isomers) [N-α-Methylcyclopropylmethylnormorphine], the “antagonist potency relative to nalorphine” value in data set [5] (in vivo) is “about one-fourth as potent as nalorphine”. Moreover, in data set [5], the ED50 is 4.5 µmol/kg. The “potency relative to morphine in the writhing assay” value in data set [6] is recorded as “more than twice as potent”. Besides, the IC50 in data set [1] (setting [8]) came out at 6 nM; in data set [1] (setting [7]) it was 3 nM. The addiction liability result in data set [3] is on record as “little or no addiction liability”. Also, in data set [2] (sc), the “potency relative to morphine in the tail flick assay” value is “about 85%”.

Take `CC(C1CC1)N1CC[C@]23c4c5ccc(O)c4O[C@H]2[C@@H](O)C=C[C@H]3[C@H]1C5` (single isomer, unassigned; diastereomer b) [N-methylcyclopropylmethyl normorphine (diastereomer B)]: the IC50 in data set [1] (setting [7]) turned out to be 7 nM.

On to `CC[C@@H](C)N1CC[C@]23c4c5ccc(O)c4O[C@H]2[C@@H](O)C=C[C@H]3[C@H]1C5` [N--sec-butyl normorphine (R), reference compound], for which the ED50 in data set [5] was found to be 16.2 µmol/kg. Besides, the IC50 is 110 nM in data set [1] (setting [8]) and 60 nM in data set [1] (setting [7]). Also, the addiction liability result in data set [3] is “little or no addiction liability”.

Regarding `CC[C@H](C)N1CC[C@]23c4c5ccc(O)c4O[C@H]2[C@@H](O)C=C[C@H]3[C@H]1C5` [N--sec-butyl normorphine (S), reference compound], in data set [5], the ED50 came to 7.4 µmol/kg. Further, the IC50 in data set [1] (setting [8]) worked out at 62 nM; in data set [1] (setting [7]) it was 28 nM. In addition, the addiction liability result in data set [3] is reported as “little or no addiction liability”.

Source of the values: patent US4749706A (priority 1986, dated 1988).
